Patent US10947188B2, “Small molecule ferroptosis inducers” (THE TRUSTEES OF COLUMBIA UNIVERSITY IN THE CITY OF NEW YORK, priority 2016, dated 2021)

Key:
[1] = tested on: HT-1080; assay: Modulatory profiling: Alamar Blue viability, lethal compound cotreated with death modulator (EC50, AUC); assay type: cell-based; parameters: AUC, modulator HT.3MA / AUC, modulator HT.ALLN / AUC HT.ATA / AUC HT.ActD / AUC HT.BHA / AUC HT.BHT / AUC HT.BocD / AUC HT.CHX / AUC HT.Co2+ / AUC HT.DPQ / AUC HT.EGTA / AUC HT.Lmim / AUC HT.NAD+ / AUC HT.Nec-1 / AUC HT.SP600125 / AUC HT.TLCK / AUC HT.U0126: unit not given beside the values; details: for AUC HT.ATA: HT-1080, modulator ATA; for AUC HT.ActD: HT-1080, modulator ActD; for AUC HT.BHA: HT-1080, modulator BHA; for AUC HT.BHT: HT-1080, modulator BHT; for AUC HT.BocD: HT-1080, modulator BocD; for AUC HT.CHX: HT-1080, modulator CHX; for AUC HT.Co2+: HT-1080, modulator Co2+; for AUC HT.CspA: HT-1080, modulator CspA; for AUC HT.DPQ: HT-1080, modulator DPQ; for AUC HT.EGTA: HT-1080, modulator EGTA; for AUC HT.Gd3+: HT-1080, modulator Gd3+; for AUC HT.LNAME: HT-1080, modulator LNAME; for AUC HT.Lmim: HT-1080, modulator Lmim; for AUC HT.NAD+: HT-1080, modulator NAD+; for AUC HT.NMMA: HT-1080, modulator NMMA; for HT.atoc (AUC) / HT.bCarotene (AUC) / HT.deferox (AUC) / HT.digoxin (AUC) / HT.trolox (AUC) / HT.zVAD (AUC): HT-1080; for HT.atoc (AUC): modulator atoc; for HT.bCarotene (AUC): modulator bCarotene; for HT.deferox (AUC): modulator deferox; for HT.digoxin (AUC): modulator digoxin; for HT.trolox (AUC): modulator trolox; for HT.zVAD (AUC): modulator zVAD; for AUC HT.BHA: reference of the scale not given here; for AUC HT.EGTA: reference of the scale not given here
[2] = tested on: BJeLR; assay: as above; assay type: cell-based, human; parameters: AUC, modulator BJ.Gd3+ / AUC, modulator BJ.LNAME / AUC, modulator BJ.Lmin / AUC, modulator BJ.3MA / AUC, modulator BJ.ALLN / AUC, modulator BJ.Boc D / AUC, modulator BJ.CHX / AUC, modulator BJ.Co2+ / AUC, modulator BJ.Nec-1 / AUC, modulator BJ.Pepstatin / AUC, modulator BJ.TLCK / AUC, modulator BJ.atoc / AUC, modulator BJ.trolox / AUC, modulator BJ.zVAD: unit not given beside the values; details: BJeLR cells, modulatory profile value (AUC); for AUC, modulator BJ.3MA: lethal compound cotreated with modulator 3MA; for AUC, modulator BJ.ALLN: lethal compound cotreated with modulator ALLN; for AUC, modulator BJ.Boc D: lethal compound cotreated with modulator Boc D; for AUC, modulator BJ.CHX: lethal compound cotreated with modulator CHX; for AUC, modulator BJ.Co2+: lethal compound cotreated with modulator Co2+; for AUC, modulator BJ.DPQ: lethal compound cotreated with modulator DPQ; for AUC, modulator BJ.Gd3+: lethal compound cotreated with modulator Gd3+; for AUC, modulator BJ.LNAME: lethal compound cotreated with modulator LNAME; for AUC, modulator BJ.Lmin/NAD+: lethal compound cotreated with modulator Lmin/NAD+; for AUC, modulator BJ.Lmin: lethal compound cotreated with modulator Lmin; for AUC, modulator BJ.NAD+: lethal compound cotreated with modulator NAD+; for AUC, modulator BJ.NMMA: lethal compound cotreated with modulator NMMA; for AUC, modulator BJ.Nec-1: lethal compound cotreated with modulator Nec-1; for AUC, modulator BJ.Pepstatin: lethal compound cotreated with modulator Pepstatin; for AUC, modulator BJ.TLCK: lethal compound cotreated with modulator TLCK; for AUC, modulator BJ.3MA: reference of the scale not given here; for AUC, modulator BJ.ALLN: reference of the scale not given here; for AUC, modulator BJ.Boc D: reference of the scale not given here; for AUC, modulator BJ.CHX: reference of the scale not given here; for AUC, modulator BJ.Co2+: reference of the scale not given here; for AUC, modulator BJ.DPQ: reference of the scale not given here; for AUC, modulator BJ.Gd3+: reference of the scale not given here; for AUC, modulator BJ.LNAME: reference of the scale not given here; for AUC, modulator BJ.NAD+: reference of the scale not given here; for AUC, modulator BJ.NMMA: reference of the scale not given here; for AUC, modulator BJ.Nec-1: reference of the scale not given here; for AUC, modulator BJ.Pepstatin: reference of the scale not given here; for AUC, modulator BJ.TLCK: reference of the scale not given here

Row | SMILES | AUC HT.ATA [1] | AUC HT.ActD [1] | AUC HT.BHA [1] | AUC HT.BHT [1] | AUC HT.BocD [1] | AUC HT.CHX [1] | AUC HT.Co2+ [1] | AUC HT.CspA [1] | AUC HT.DPQ [1] | AUC HT.EGTA [1] | AUC HT.Gd3+ [1] | AUC HT.LNAME [1] | AUC HT.Lmim [1] | AUC HT.NAD+ [1] | AUC HT.NMMA [1] | HT.atoc (AUC) [1] | HT.bCarotene (AUC) [1] | HT.deferox (AUC) [1] | HT.digoxin (AUC) [1] | HT.trolox (AUC) [1] | also measured
1 | CN(C)CCNC(=O)c1cc2c(s1)-c1ccc(Cl)cc1SC2 [CIL55] | 0.05195 | −0.0079 | 0.09593 | 0.04919 | 0.01568 | −0.01039 | 0.1152 | −0.007883 | 0.01405 | 0.04877 | −0.01479 | 0.007171 | 0.07005 | 0.03996 | 0.004761 | 0.2074 | 0.001297 | 0.1108 | −0.0491 | 0.1469 | HT.zVAD (AUC) [1]: 0.0266; AUC, modulator BJ.3MA [2]: 0.06354; AUC, modulator BJ.ALLN [2]: −0.04685; AUC, modulator BJ.Boc D [2]: −0.01499; AUC, modulator BJ.CHX [2]: 0.0373; AUC, modulator BJ.Co2+ [2]: 0.03522; AUC, modulator BJ.DPQ [2]: 0.01735; AUC, modulator BJ.Gd3+ [2]: 0.003555; AUC, modulator BJ.LNAME [2]: −0.02008; AUC, modulator BJ.Lmin/NAD+ [2]: 0.1924; AUC, modulator BJ.Lmin [2]: 0.08143; AUC, modulator BJ.NAD+ [2]: 0.02772; AUC, modulator BJ.NMMA [2]: −0.002759; AUC, modulator BJ.Nec-1 [2]: 0.09849; AUC, modulator BJ.Pepstatin [2]: 0.02873; AUC, modulator BJ.TLCK [2]: 0.07378
2 | O=C(Oc1ccc(Cl)c2cccnc12)c1ccco1 [CIL58] | 0.05141 | 0.02044 | −0.03989 | −0.1355 | −0.02082 | −0.05674 | 0.09509 | 0.06761 | −0.005922 | 0.05184 | −0.004674 | −0.09982 | −0.07257 | −0.06539 | −0.09083 | 0.03305 | 0.08558 | 0.08912 | 0.0229 | −0.04791 | HT.zVAD (AUC) [1]: 0.02459; AUC, modulator BJ.3MA [2]: 0.03403; AUC, modulator BJ.ALLN [2]: 0.01846; AUC, modulator BJ.Boc D [2]: −0.007995; AUC, modulator BJ.CHX [2]: −0.04911; AUC, modulator BJ.Co2+ [2]: 0.2386; AUC, modulator BJ.DPQ [2]: 0.009922; AUC, modulator BJ.Gd3+ [2]: 0.02131; AUC, modulator BJ.LNAME [2]: −0.02811; AUC, modulator BJ.Lmin/NAD+ [2]: 0.02713; AUC, modulator BJ.Lmin [2]: −0.009172; AUC, modulator BJ.NAD+ [2]: 0.02238; AUC, modulator BJ.NMMA [2]: −0.05299; AUC, modulator BJ.Nec-1 [2]: 0.0983; AUC, modulator BJ.Pepstatin [2]: 0.07532; AUC, modulator BJ.TLCK [2]: 0.1505
3 | Cc1cccc(Cn2ncc(Cl)c(Cl)c2=O)c1 [CIL60] | 0.07052 | 0.04832 | −0.0006407 | −0.1303 | −0.04051 | 0.112 | −0.08003 | −0.004831 | 0.02073 | 0.05296 | −0.0163 | 0.004397 | 0.03464 | 0.01526 | −0.01091 | 0.08708 | 0.04979 | 0.07702 | −0.03602 | −0.0265 | HT.zVAD (AUC) [1]: −0.009922; AUC, modulator BJ.3MA [2]: 0.06736; AUC, modulator BJ.ALLN [2]: −0.004197; AUC, modulator BJ.Boc D [2]: 0.02626; AUC, modulator BJ.CHX [2]: 0.1803; AUC, modulator BJ.Co2+ [2]: 0.03836; AUC, modulator BJ.DPQ [2]: 0.02057; AUC, modulator BJ.Gd3+ [2]: 0.02704; AUC, modulator BJ.LNAME [2]: −0.01542; AUC, modulator BJ.Lmin/NAD+ [2]: 0.05888; AUC, modulator BJ.Lmin [2]: 0.04196; AUC, modulator BJ.NAD+ [2]: 0.05735; AUC, modulator BJ.NMMA [2]: −0.03338; AUC, modulator BJ.Nec-1 [2]: 0.08176; AUC, modulator BJ.Pepstatin [2]: 0.1359; AUC, modulator BJ.TLCK [2]: −0.06705
